In patent publication EP4711365A1 (Shanghai Hansoh Biomedical Co., Ltd., priority 2023, dated 2024):
pIC50: −log10 of the molar value.

Test system: Groα secretion by HT-29 cells
Experiment: Inhibition of Groα secretion by HT-29 cells stimulated with IL-17A (ELISA)
Type: cell-based, Human
Settings: Homo sapiens, HT-29, 48 h, IL-17A 30 ng/ml, Groα in supernatant
Procedure: Test example 2 Assay for inhibitory effect of compounds of the present invention against Groα secretion by HT-29 cells
Experimental objective: to measure the inhibitory effect of the compounds against Groα secretion by HT-29 cells, thereby evaluating the inhibition of the compounds on IL-17A pathway.
Experimental method: A cell suspension at 50,000 cells/ml was prepared, and 200 µl of the cell suspension was added to each well of a 96-well plate, i.e., 10,000 cells/well. The plate was cultured overnight. In the 96-well V-bottom plate, 5 mM compound solution was serially diluted 3-fold using DMSO, and the compound from each well was diluted 100-fold using a complete culture medium. IL-17A protein (R&D, #BT7955-025/CF) with a stock concentration of 100 µg/ml was diluted 333.33-fold using a complete culture medium. The compound and IL-17A were mixed at a volume ratio of 1:1 and incubated at 37°C for 30 minutes. 50 µl of a mixture of the compound and IL-17A was added to cell wells, and the final concentration of IL-17A protein was 30 ng/ml.
The mixture was incubated in a 37°C, 5% CO2 cell culture incubator for 48 hours. The concentration of Groα in the supernatant was determined by ELISA method using Human Groα Valukin Elisa kit (Biotechne, # VAL139), and the absorbance intensity at 450 nm was measured using a microplate reader (PE, EnVision2105). Data were analysed using GraphPad Prism 8.3.0.
Experimental data processing method: Data were analysed using GraphPad Prism 8.3.0.
Inhibition rate% = [(average value of positive control wells - value of sample wells)/(average value of positive control wells - average value of negative control wells)] × 100%, where the sample wells are wells containing cells plus compounds at different concentration gradients, the positive control wells are wells containing cells plus IL-17A, and the negative control wells are wells containing culture medium plus IL-17A.
Curve fitting: The IC50 value was obtained by curve fitting based on the inhibition rate (%) at each concentration using the log(inhibitor) vs. responseVariable slope (four parameters) in GraphPad Prism 6.0, and the calculation equation was Y = Bottom + (Top-Bottom)/(1+10^((LogIC50-X)*HillSlope)).

| pIC50 | Compound |
| --- | --- |
| 8.42 | CCn1nccc1C(=O)N[C@H](C(=O)Nc1ncc([C@@H](CN(C)C)n2cc(Cl)ccc2=O)s1)[C@H]1CC[C@H](C)CC1 [Example 644] |
| 8.10 | CCc1nonc1C(=O)N[C@H](C(=O)Nc1ncc(C(C2CCS(=O)(=O)CC2)n2cc(Cl)ccc2=O)s1)[C@H]1CC[C@H](C)CC1 (stereo partly drawn) [Example 540-1] |
| 8.70 | C[C@H]1CC[C@H]([C@H](NC(=O)C2(F)CC2)C(=O)Nc2ncc([C@@H](CN3CCC4(CC3)CC4(F)F)N3CC(F)(F)CNC3=O)s2)CC1 [Example 1016] |
| 8.60 | CCn1nccc1C(=O)N[C@H](C(=O)Nc1ncc([C@@H](CN2CCC3(CC2)OCCO3)n2cc(Cl)ccc2=O)s1)[C@H]1CC[C@H](C)CC1 [Example 1020] |
| 8.00 | CCn1nccc1C(=O)N[C@H](C(=O)Nc1ncc([C@@H](CN(C)CCOC)N2CC(F)(F)CCC2=O)s1)[C@H]1CC[C@H](C)CC1 [Example 1023] |
| 8.70 | [2H]C([2H])([2H])C([2H])([2H])n1nccc1C(=O)N[C@H](C(=O)Nc1ncc([C@@H](CN2C[C@H](C)OC[C@@H]2C)N2CC(F)(F)CCC2=O)s1)[C@H]1CC[C@H](C)CC1 [Example 860, N-((S)-2-((5-((R)-1-(5,5-difluoro-2-oxopiperidin-1-yl)-2-((2S,5S)-2,5-dimethylmorpholino)ethyl)thiazol-2-yl)amino)-1-((1r,4S)-4-methylcyclohexyl)-2-oxoethyl)-1-(ethyl-d5)-1H-pyrazole-5-carboxamide] |
| 8.00 | CCn1nccc1C(=O)N[C@H](C(=O)Nc1ncc([C@@H](CN2CCCC2)N2CC(F)(F)CCC2=O)s1)[C@H]1CC[C@H](C)CC1 [Example 1022] |
| 8.57 | [2H]C([2H])([2H])C([2H])([2H])n1nccc1C(=O)N[C@H](C(=O)Nc1ncc([C@@H](CN2C[C@@H](C)OC[C@H]2C)N2CC(F)(F)CCC2=O)s1)[C@H]1CC[C@H](C)CC1 [Example 862, N-((S)-2-((5-((R)-1-(5,5-difluoro-2-oxopiperidin-1-yl)-2-((2R,5R)-2,5-dimethylmorpholino)ethyl)thiazol-2-yl)amino)-1-((1r,4S)-4-methylcyclohexyl)-2-oxoethyl)-1-(ethyl-d5)-1H-pyrazole-5-carboxamide] |
| 8.26 | [2H]C1([2H])NC(=O)N([C@H](COC)c2cnc(NC(=O)[C@@H](NC(=O)c3ccnn3C(C)C)C3CCC(F)(F)CC3)s2)C([2H])([2H])C1(F)F [Example 259, N-((S)-2-((5-((R)-1-(5,5-difluoro-2-carbonyltetrahydropyrimidin-1(2H)-yl-4,4,6,6-d4)-2-methoxyethyl)thiazol-2-yl)amino)-1-(4,4-difluorocyclohexyl)-2-carbonylethyl)-1-isopropyl-1H-pyrazole-5-carboxamide] |
| 8.30 | [2H]C([2H])([2H])C([2H])([2H])n1nccc1C(=O)N[C@H](C(=O)Nc1ncc([C@@H](CN2CCC(=C(F)F)CC2)N2CC(F)(F)CCC2=O)s1)[C@H]1CC[C@H](C)CC1 [Example 980] |
| 8.15 | [2H]C([2H])([2H])n1nccc1C(=O)N[C@H](C(=O)Nc1ncc([C@@H](CN2CCOCC2)N2CC(F)(F)CCC2=O)s1)[C@H]1CC[C@H](C)CC1 [Example 1030] |
| 8.08 | [2H]C([2H])([2H])C([2H])([2H])n1nccc1C(=O)N[C@H](C(=O)Nc1ncc(C(COC)n2cc(Cl)ccc2=O)s1)[C@H]1CC[C@H](C)CC1 (stereo partly drawn) [Example 586-1] |
| 8.40 | [2H]C([2H])([2H])C([2H])([2H])n1nccc1C(=O)N[C@H](C(=O)Nc1ncc([C@@H](CN2CCC(F)CC2)N2CC(F)(F)CCC2=O)s1)[C@H]1CC[C@H](C)CC1 [Example 919] |
| 8.60 | CCn1nccc1C(=O)N[C@H](C(=O)Nc1ncc([C@@H](CN2CCC(OC)CC2)n2cc(Cl)ccc2=O)s1)[C@H]1CC[C@H](C)CC1 [Example 634] |
| 8.49 | CCn1nccc1C(=O)N[C@H](C(=O)Nc1ncc([C@@H](CN2C[C@@H](C)OC[C@H]2C)N2CC(F)(F)CCC2=O)s1)[C@H]1CC[C@H](C)CC1 [Example 863] |
| 8.30 | [2H]C([2H])([2H])C([2H])([2H])n1nccc1C(=O)N[C@H](C(=O)Nc1ncc([C@@H](CN2CCOCC2)n2cc(Cl)ccc2=O)s1)[C@H]1CC[C@H](C)CC1 [Example 574] |

| pIC50 | Compound |
| --- | --- |
| 8.10 | [2H]C([2H])([2H])n1nccc1C(=O)N[C@H](C(=O)Nc1ncc([C@@H](CN2CCC3(COC3)C2)N2CC(F)(F)CCC2=O)s1)[C@H]1CC[C@H](C)CC1 [Example 1032] |
| 8.06 | [2H]C([2H])([2H])OC1(C)CCN(C[C@H](c2cnc(NC(=O)[C@@H](NC(=O)c3ccnn3C([2H])([2H])C([2H])([2H])[2H])[C@H]3CC[C@H](C)CC3)s2)N2CC(F)(F)CCC2=O)CC1 [Example 988] |
| 8.15 | C[C@H]1CC[C@H]([C@H](NC(=O)C2(F)CC2)C(=O)Nc2ncc([C@@H](CN3CCC(CF)CC3)N3CC(F)(F)CNC3=O)s2)CC1 [Example 767] |
| 8.22 | CCn1nccc1C(=O)N[C@H](C(=O)Nc1ncc([C@@H](CN2CCC(COC)CC2)N2CC(F)(F)CCC2=O)s1)[C@H]1CC[C@H](C)CC1 [Example 1036] |
| 8.02 | CCn1nccc1C(=O)NC(C(=O)Nc1ncc(C(CN2CCC(OC)C2)N2CC(F)(F)CCC2=O)s1)C1CCC(C)CC1 (stereo not drawn) [Example 648] |
| 8.52 | [2H]C([2H])([2H])C([2H])([2H])n1nccc1C(=O)N[C@H](C(=O)Nc1ncc([C@@H](CN2CCO[C@H](CF)C2)N2CC(F)(F)CCC2=O)s1)[C@H]1CC[C@H](C)CC1 [Example 820, N-((S)-2-((5-((R)-1-(5,5-difluoro-2-oxopiperidin-1-yl)-2-((S)-2-(fluoromethyl)morpholino)ethyl)thiazol-2-yl)amino)-1-((1r,4S)-4-methylcyclohexyl)-2-oxoethyl)-1-(ethyl-d5)-1H-pyrazole-5-carboxamide] |
| 8.15 | COCCN(C)C[C@H](c1cnc(NC(=O)[C@@H](NC(=O)c2ccnn2C)[C@H]2CC[C@H](C)CC2)s1)N1CC(F)(F)CCC1=O [Example 1024] |
| 8.22 | [2H]C([2H])([2H])C([2H])([2H])n1nccc1C(=O)N[C@H](C(=O)Nc1ncc([C@@H](CN2CCC3(CCOC3)CC2)N2CC(F)(F)CCC2=O)s1)[C@H]1CC[C@H](C)CC1 [Example 1034] |
| 8.40 | [2H]C([2H])([2H])C([2H])([2H])n1nccc1C(=O)NC(C(=O)Nc1ncc(C(CN2CCC3C(C2)C3(F)F)N2CC(F)(F)CCC2=O)s1)C1CCC(C)CC1 (stereo not drawn) [Example 970] |
| 8.80 | CCn1nccc1C(=O)N[C@H](C(=O)Nc1ncc([C@@H](CN2CCC(C(=O)O)CC2)n2cc(Cl)ccc2=O)s1)[C@H]1CC[C@H](C)CC1 [Example 663] |
| 8.23 | COCCC(c1cnc(NC(=C=O)[C@@H](NC(=O)c2ccnn2C(C)C)C2CCCCC2)s1)N1C[C@@H](C(F)(F)F)NC1=C=O (stereo partly drawn) [Example 564, N-((1S)-1-cyclohexyl-2-((5-(3-methoxy-1-((S)-2-carbonyl-4-(trifluoromethyl)imidazolidin-1-yl)propyl)thiazol-2-yl)amino)-2-carbonylethyl)-1-isopropyl-1H-pyrazole-5-carboxamide] |
| 8.40 | COC[C@H](c1cnc(NC(=O)[C@@H](NC(=O)c2ccnn2C(C)C)C2CCCCC2)s1)N1CC(F)(F)CNC1=O [Example 565] |
| 8.05 | [2H]C([2H])([2H])OC1CCN(C[C@H](c2cnc(NC(=O)[C@@H](NC(=O)c3ccnn3C([2H])([2H])C([2H])([2H])[2H])[C@H]3CC[C@H](C)CC3)s2)N2CC(F)(F)CCC2=O)CC1 [Example 986] |
| 8.07 | CCn1nccc1C(=O)N[C@H](C(=O)Nc1ncc([C@@H](CN2CCCCC2)N2CC(F)(F)CCC2=O)s1)[C@H]1CC[C@H](C)CC1 [Example 1021] |
| 8.46 | [2H]C([2H])([2H])C([2H])([2H])n1nccc1C(=O)N[C@H](C(=O)Nc1ncc([C@@H](CN2CCC(F)(F)CC2)N2CC(F)(F)CCC2=O)s1)[C@H]1CC[C@H](C)CC1 [Example 913] |
| 8.28 | CCn1nccc1C(=O)N[C@H](C(=O)Nc1ncc([C@@H](COC)n2cc(Cl)ccc2=O)s1)[C@H]1CC[C@H](C)CC1 [Example 689] |

Same assay, conditions: Homo sapiens, IL-17A 30 ng/ml, 48 hours, Groα in supernatant

| Compound | pIC50 |
| --- | --- |
| [2H]C([2H])([2H])OC1CCN(C[C@H](c2cnc(NC(=O)[C@@H](NC(=O)C3(F)CC3)[C@H]3CC[C@H](C)CC3)s2)N2CC(F)(F)CNC2=O)CC1 [Example 780] | 8.00 |
| C[C@H]1CC[C@H]([C@H](NC(=O)C2(F)CC2)C(=O)Nc2ncc([C@@H](CN3CC4CCC(C3)O4)N3CC(F)(F)CNC3=O)s2)CC1 [Example 743] | 8.22 |
| COC[C@H](c1cnc(NC(=O)[C@@H](NC(=O)c2ccnn2C(C)C)[C@H]2CC[C@H](C)CC2)s1)N1CC(F)(F)CNC1=O [Example 327] | 8.60 |

Same assay, conditions: IL-17A 30 ng/ml, 48 hours, Groα in supernatant

| pIC50 | Compound |
| --- | --- |
| 8.22 | CCn1nccc1C(=O)NC(C(=O)Nc1ncc(C(CN2CCC(OC)C2)N2CC(F)(F)CCC2=O)s1)C1CCC(C)CC1 (stereo not drawn) [Example 650] |
